Assay results published in patent US4199500A, “Peptides related to somatostatin” (Eli Lilly and Company, priority 1978, dated 1980).
Positions of bridges follow the written chain, without caps; N, C: chain ends. Non-standard residues stand in square brackets, D forms with d. Residues, ends and D or L forms follow the SMILES beside them.

Assays:
serum glucagon = assay: Glucagon Inhibition In Dogs (I.V. infusion, L-alanine stimulation, serum glucagon by radioimmunoassay); format: in vivo, dog
Method: (§1) B. Insulin and Glucagon Inhibition In Dogs:
(§2) A normal dog is fasted overnight. An intravenous (I.V.) infusion of the test compound (dissolved in saline) is begun. Thirty minutes thereafter an additional infusion of L-alanine (dissolved in saline) is begun and is continued for a total of 15 minutes so that a total dose of about 1 mmole of L-alanine per kg. body weight is given. Infusion of the test compound is continued for an additional 15 minute period.
(§3) Blood samples are taken periodically before (at -20, -10 and -1 minutes) and after (5, 10, 15, 30, 35, 40, 45, 50, 60, 90, 120 and 150 minutes) the start of the infusion of the test compound. The serum insulin and serum glucagon concentrations in the blood are determined by radioimmunoassay. A plot is made of the glucagon and insulin concentrations versus time. The plot obtained from the test compound is compared to plots obtained from somatostatin and saline (controls) in similar experiments.
(§4) Infusion of L-alanine (in the absence of somatostatin or active test compound) causes an abrupt increase in serum insulin and glucagon concentrations. The concentrations return to basal levels after the L-alanine infusion is terminated.

serum insulin = assay: Insulin Inhibition In Dogs (I.V. infusion, L-alanine stimulation, serum insulin by radioimmunoassay); format: in vivo, dog
Method: as §1, §2, §3, §4

[1] = system: growth hormone (GH) secretion; assay: Growth Hormone Inhibition In Rats (pentobarbital-stimulated GH secretion, serum GH by radioimmunoassay); format: in vivo; details: male rats; for % Inhibition of GH release (as compared to control): compared to saline control; for Serum Growth Hormone Conc. Mean ± SEM: sodium pentobarbital 4 mg/rat I.P., 20 minutes after dosing
Method: A. Growth Hormone Inhibition In Rats:
This test is a modification of the method of P. Brazeau et al. Endocrinology, 94, 184 (1974). Male rats (weighing 100-110 g.) are divided into three groups of eight rats each. Each rat is administered sodium pentobarbital at a dose of 4 mg/rat (I.P.) to stimulate growth hormone (GH) secretion. Simultaneously, one group of rats receives the test compound (S.C.); the second group receives somatostatin (S.C.); and the third group (control) receives saline (S.C.). Twenty-minutes later, the animals are decapitated and blood samples are collected. The serum concentration of growth hormone (GH) is determined by radioimmunoassay. The mean GH concentration (± standard error of the mean) is calculated for each group. The percent inhibition of GH release (as compared to saline controls) is then calculated for the test compound and for somatostatin. When tested as above-described, the peptide of Example 4 (D-Ala^2, Ala^5, D-Trp^8, Val^10, D-Phe^11 -Somatostatin) representative of the peptides of Formula III, gave the results set forth below in Table I: […]

[2] = normal fasted dog, I.V. infusion 0.237 μg/Kg./min, L-alanine infusion
[3] = dog, in the presence of L-alanine
[4] = dog, infusion alone (no L-alanine)

| Structure (SMILES) | inhibition of glucagon concentration (serum glucagon; [2]) | inhibition of insulin concentration (serum insulin; [2]) | % Inhibition of GH release (as compared to control) ([1]; dose 2 mg/kg S.C.) [%] | Serum Growth Hormone Conc. Mean ± SEM ([1]; dose 2 mg/kg S.C.) [ng/mL] | % Inhibition of GH release (as compared to control) ([1]; dose 50 mg/kg S.C.) [%] | Serum Growth Hormone Conc. Mean ± SEM ([1]; dose 50 mg/kg S.C.) [ng/mL] | effect on increase in glucagon concentration induced by L-alanine (serum glucagon; [3]) | effect on basal serum concentration of glucagon (serum glucagon; [4]) | effect on increase in insulin concentration induced by L-alanine (serum insulin; [3]) | effect on basal serum concentration of insulin (serum insulin; [4]) |
| --- | --- | --- | --- | --- | --- | --- | --- | --- | --- | --- |
| CC(C)[C@@H]1NC(=O)[C@H](CCCCN)NC(=O)[C@@H](Cc2c[nH]c3ccccc23)NC(=O)[C@H](Cc2ccccc2)NC(=O)[C@H](Cc2ccccc2)NC(=O)[C@H](C)NC(=O)[C@H](CCCCN)NC(=O)[C@@H](NC(=O)[C@@H](C)NC(=O)[C@H](C)N)CSSC[C@@H](C(=O)O)NC(=O)[C@H](CO)NC(=O)[C@H]([C@@H](C)O)NC(=O)[C@@H](Cc2ccccc2)NC1=O [Example 4, L-Alanyl-D-alanyl-L-cysteinyl-L-lysyl-L-alanyl-L-phenylalanyl-L-phenylalanyl-D-tryptophyl-L-lysyl-L-valyl-D-phenyl-alanyl-L-threonyl-L-seryl-L-cysteine cyclic (3->14) disulfide] (H-A[dA]CKAFF[dW]KV[dF]TSC-OH; disulfide 3-14) | no significant inhibition | no significant inhibition | 7.8 | 61 ± 24 | 66 | 97 ± 39 |  |  |  |  |
| C[C@H](N)C(=O)NCC(=O)N[C@H]1CSSC[C@@H](C(=O)O)NC(=O)[C@H](CO)NC(=O)[C@H]([C@@H](C)O)NC(=O)[C@H](Cc2ccccc2)NC(=O)[C@H]([C@@H](C)O)NC(=O)[C@H](CCCCN)NC(=O)[C@H](Cc2c[nH]c3ccccc23)NC(=O)[C@H](Cc2ccccc2)NC(=O)[C@H](Cc2ccccc2)NC(=O)[C@H](CC(N)=O)NC(=O)[C@H](CCCCN)NC1=O [Somatostatin] |  |  | 63 | 105 ± 69 | 93 |  | inhibits the increase | causes a decrease | inhibits the increase | causes a decrease |
